{
  "source": "patent US4760053A",
  "about": "“Combination therapy for selected sex steroid dependent cancers” (priority 1985, dated 1988)",
  "key": {"serum testosterone": {"test_system": "serum testosterone", "assay": "LHRH agonist-induced serum testosterone in the dog", "assay_type": "in vivo", "details": "dogs; for prevention of the rise in serum testosterone during the first days of treatment with the peptide: given per os three times daily together with 50 μg LHRH-A daily (aminoglutethimide group plus hydrocortisone)", "description": "Eighteen mongrel dogs weighing between 20-30 kg were randomly divided into three groups. The animals were housed one per cage and fed Purina Dog Chow and tap water ad libitum.\nThe animals of group 1 were injected daily (at 0700 h) with 50 μg of the LHRH agonist [D-Trp^6, des-Gly-NH2^10 ]LHRH ethylamide (LHRH-A). In group 2, the animals were also injected daily with 50 μg of LHRH-A and took in addition 200 mg of ketoconazole per os at 0700 h, 1500 h and 2300 h. The animals of group 3 received daily 50 μg of LHRH-A and 125 mg of aminoglutethimide per os at 0700 h, 1500 h, 2300 h plus 10 mg of hydrocortisone twice daily.\nBlood samples were collected at 0700 h, 0900 h, 1100 h and 1500 h one day before treatment and every day during the treatment. Plasma was extracted with diethyl ether and testosterone was separated on LH-20 columns before RIA measurements."}, "advanced breast cancer": {"test_system": "advanced breast cancer", "details": "cited from earlier work"}, "[1]": {"test_system": "MCF7 human breast tumor cells", "details": "inhibitory activity antagonized by estradiol; cited from earlier work"}, "testosterone levels": {"test_system": "testosterone levels", "details": "rodents, in combination with chronic administration of Leuprolide; cited from earlier work"}},
  "data": [
    {"smiles": "CCNC(=O)[C@@H]1CCCN1C(=O)[C@H](CCCNC(=N)N)NC(=O)[C@H](CC(C)C)NC(=O)[C@@H](Cc1c[nH]c2ccccc12)NC(=O)[C@H](Cc1ccc(O)cc1)NC(=O)[C@H](CO)NC(=O)[C@H](Cc1c[nH]c2ccccc12)NC(=O)[C@H](Cc1c[nH]cn1)NC(=O)[C@@H]1CCC(=O)N1", "note": "[[D-Trp^6 des-Gly-NH2^10]LHRH ethylamide, [D-Trp^6, des-Gly-NH2^10]LHRH ethylamide]", "values": [
      {"measurement": "level of serum testosterone on day 19", "setting": "serum testosterone; daily injection of 50 μg, day 19", "value": "near-castration levels"},
      {"measurement": "increase in serum testosterone", "setting": "serum testosterone; daily injection of 50 μg, one to six days after start of treatment", "value": "approximately 500 % above control"}
    ]},
    {"smiles": "CCC1(c2ccc(N)cc2)CCC(=O)NC1=O", "note": "(centres unmarked) [aminoglutethimide, 3-(4-aminophenyl)-3-ethyl-2,6-piperidinedione]", "values": [
      {"measurement": "prevention of the rise in serum testosterone during the first days of treatment with the peptide", "setting": "serum testosterone", "value": "almost completely prevented"}
    ]},
    {"smiles": "CC/C(=C(\\c1ccccc1)c1ccc(OCCN(C)C)cc1)c1ccccc1", "note": "[Tamoxifen, (Z)-2-[4-(1,2-diphenyl-1-butenyl)phenoxy]-N,N-dimethylethanamine]", "values": [
      {"measurement": "remission of advanced breast cancer, share of patients treated", "setting": "advanced breast cancer; Tamoxifen alone", "value": "about 30%"},
      {"measurement": "objective remission of breast cancer", "setting": "advanced breast cancer; combined use with the LH-RH agonist Buserelin", "value": 35, "unit": "%"}
    ]},
    {"smiles": "CC[C@H](c1cccc(O)c1)[C@@H](CC)c1cccc(O)c1", "note": "[meso-3,4-bis(3'-hydroxyphenyl)hexane]", "values": [
      {"measurement": "inhibition of MCF7 human breast tumor cells", "setting": "[1]", "value": "inhibits"}
    ]},
    {"smiles": "CC(=O)N1CCN(c2ccc(OCC3COC(Cn4ccnc4)(c4ccc(Cl)cc4Cl)O3)cc2)CC1", "note": "(centres unmarked) [ketoconazole]", "values": [
      {"measurement": "basal and Leuprolide stimulated testosterone levels", "setting": "testosterone levels", "value": "decreased"},
      {"measurement": "prevention of the rise in serum testosterone during the first days of treatment with the peptide", "setting": "serum testosterone", "value": "almost completely prevented"}
    ]}
  ]
}
